Assay: Onset of egg laying and egg weight in hens treated via drinking water, Example 3
Format: in vivo
Description: The end of the development of the reproductive organ of laying hens starts on the age of 15 weeks and continues during 7 weeks. 10 laying hens were treated with L-arginine via drinking water from the age of 15 weeks till the age of 21 weeks and 10 laying hens were used as a control group. L-arginine was dosed at 15 mg per kg weight per day. L-arginine free base or a L-arginine salt such as hydrochloride may be given daily in a dose of about 5 - 200 mg up to 5 to about 1000 mg per kg bodyweight per day. Light schemes were taken into account: 8 hours light at the age of 15 and 16 weeks old, 9 hours at 17 weeks, 10 hours at 18 weeks, 11 hours at 19 weeks, 12 hours at 20 weeks and 13 hours at 21 weeks old. The treatment with L-arginine was started on the age of 15 weeks. After 40 days of treatment, 3 of 10 chickens treated with L-arginine started laying while one chicken of the control group started laying four days later (Fig. 5). It is unexpected that the onset of egg-laying is earlier than in the control group which is a commercially important aspect of the present invention. The average weight of the eggs (number of eggs ≥ 3) was above 50 g after 46 days in the treated group while in the control group after 54 days the average weight of at least 3 eggs was above 50 g (Fig 6). Again this improvement is unexpected and is of commercial value.

**Q.** With `N=C(N)NCCCC(N)C(=O)O` [L-arginine, 2-amino-5-guanidinovaleric acid] as the molecule, how does the chickens started laying (after 40 days of treatment, 15 mg per kg weight per day via drinking water from the age of 15 weeks, Fig. 5) read?
**A.** The chickens started laying was 3 of 10.

**Q.** And the “average weight of the eggs (number of eggs ≥ 3)” value (after 46 days in the treated group, 15 mg per kg weight per day via drinking water, Fig. 6)?
**A.** The value was “above 50 g”.

Source: patent publication EP1234508A1, “Antiprotozoal methods, compositions and feedstuffs” (UNIVERSITEIT GENT, priority 2001, dated 2002)
